System: 299254-011-R-J1-PDC complex spheroid viability
Assay: Anticancer human tumor 299254-011-R-J1-PDC patient-derived melanoma cell line growth inhibition [POLQ]
Settings: for IC50: curve of first compound; for viability, T/C: stronger effect = lower value
How it was run: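 PDC + HUVEC + MSC complex spheroids; POLQ inhibitors ± partner drugs; top conc. at/near clinical Cmax, else 10 microM (SN-38 1 microM), half-log dilutions; 37 degrees C, 5% CO2.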

[1] = second compound 0.0316 µM, first compound 0.0316 µM
[2] = second compound 0.0316 µM, first compound 0.1 µM
[3] = second compound 0.0316 µM, first compound 0.316 µM
[4] = second compound 0.0316 µM, first compound 1 µM
[5] = second compound 0.0316 µM, first compound 3.16 µM
[6] = second compound 0.0316 µM, first compound 10 µM
[7] = second compound 0.1 µM, first compound 0.0316 µM
[8] = second compound 0.1 µM, first compound 0.1 µM
[9] = second compound 0.1 µM, first compound 0.316 µM
[10] = second compound 0.1 µM, first compound 1 µM
[11] = second compound 0.1 µM, first compound 3.16 µM
[12] = second compound 0.1 µM, first compound 10 µM
[13] = second compound 0.316 µM, first compound 0.0316 µM
[14] = second compound 0.316 µM, first compound 0.1 µM
[15] = second compound 0.316 µM, first compound 0.316 µM
[16] = second compound 0.316 µM, first compound 1 µM
[17] = second compound 0.316 µM, first compound 3.16 µM
[18] = second compound 0.316 µM, first compound 10 µM
[19] = second compound 1 µM, first compound 0.0316 µM
[20] = second compound 1 µM, first compound 0.1 µM
[21] = second compound 1 µM, first compound 0.316 µM
[22] = second compound 1 µM, first compound 1 µM
[23] = second compound 1 µM, first compound 3.16 µM
[24] = second compound 1 µM, first compound 10 µM
[25] = second compound 3.16 µM, first compound 0.0316 µM
[26] = second compound 3.16 µM, first compound 0.1 µM
[27] = second compound 3.16 µM, first compound 0.316 µM
[28] = second compound 3.16 µM, first compound 1 µM
[29] = second compound 3.16 µM, first compound 3.16 µM
[30] = second compound 3.16 µM, first compound 10 µM
[31] = second compound 10 µM, first compound 0.0316 µM
[32] = second compound 10 µM, first compound 0.1 µM
[33] = second compound 10 µM, first compound 0.316 µM
[34] = second compound 10 µM, first compound 1 µM
[35] = second compound 10 µM, first compound 3.16 µM
[36] = second compound 10 µM, first compound 10 µM
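Also: spheroids exposed to drugs for one week before measurement.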
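For viability, T/C in this document: percent viability relative to DMSO vehicle control taken as 100%.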

Compound CCCS(=O)(=O)Nc1ccc(F)c(C(=O)c2c[nH]c3ncc(-c4ccc(Cl)cc4)cc23)c1F + Nc1ccc(C#CCN(C(=O)Cc2ncc(C(F)(F)F)cc2C(F)(F)F)c2ccc(F)cc2)nn1 has an IC50 (second compound 0.0316 µM) of 9.62 µM, an IC50 (second compound 0.1 µM) of 9.01 µM and an IC50 (second compound 0.316 µM) of 9.95 µM. It also gave an IC50 (second compound 1 µM) of 8.98 µM, an IC50 (second compound 3.16 µM) greater than 10 µM and an IC50 (second compound 10 µM) greater than 10 µM. It also gave a viability, T/C [1] of 109%, a viability, T/C [2] of 128% and a viability, T/C [3] of 122%. It also gave a viability, T/C [4] of 120%, a viability, T/C [5] of 108% and a viability, T/C [6] of 47.8%. For the same compound, the viability, T/C [7] was 92.7%, the viability, T/C [8] was 117% and the viability, T/C [9] was 119%. It also gave a viability, T/C [10] of 110%, a viability, T/C [11] of 104% and a viability, T/C [12] of 44.6%. The viability, T/C [13] was 97.5%, the viability, T/C [14] was 93.5% and the viability, T/C [15] was 112%. The viability, T/C [16] was 111%, the viability, T/C [17] was 129% and the viability, T/C [18] was 49.7%. The viability, T/C [19] was 97.3%, the viability, T/C [20] was 99.2% and the viability, T/C [21] was 106%. It also gave a viability, T/C [22] of 121%, a viability, T/C [23] of 122% and a viability, T/C [24] of 43.8%. For the same compound, the viability, T/C [25] was 108%, the viability, T/C [26] was 140% and the viability, T/C [27] was 140%. The viability, T/C [28] was 101%, the viability, T/C [29] was 106% and the viability, T/C [30] was 50.7%. The viability, T/C [31] was 94.8%, the viability, T/C [32] was 98.6% and the viability, T/C [33] was 109%. It also gave a viability, T/C [34] of 102%, a viability, T/C [35] of 98.5% and a viability, T/C [36] of 57%.

For O=C(c1cc(Cc2n[nH]c(=O)c3ccccc23)ccc1F)N1CCN(C(=O)C2CC2)CC1 + COC1C(OC(N)=O)C(O)C(Oc2ccc3c(O)c(NC(=O)c4ccc(O)c(CC=C(C)C)c4)c(=O)oc3c2C)OC1(C)C, the IC50 (second compound 0.0316 µM) was greater than 10 µM, the IC50 (second compound 0.1 µM) was greater than 10 µM and the IC50 (second compound 0.316 µM) was greater than 10 µM. It also gave an IC50 (second compound 1 µM) greater than 10 µM, an IC50 (second compound 3.16 µM) greater than 10 µM and an IC50 (second compound 10 µM) greater than 10 µM. The viability, T/C [1] was 129%, the viability, T/C [2] was 114% and the viability, T/C [3] was 114%. The viability, T/C [4] was 122%, the viability, T/C [5] was 116% and the viability, T/C [6] was 101%. The viability, T/C [7] was 107%, the viability, T/C [8] was 113% and the viability, T/C [9] was 117%. It also gave a viability, T/C [10] of 129%, a viability, T/C [11] of 131% and a viability, T/C [12] of 93.6%. The viability, T/C [13] was 116%, the viability, T/C [14] was 110% and the viability, T/C [15] was 119%. The viability, T/C [16] was 135%, the viability, T/C [17] was 106% and the viability, T/C [18] was 99.5%. It also gave a viability, T/C [19] of 128%, a viability, T/C [20] of 122% and a viability, T/C [21] of 121%. For the same compound, the viability, T/C [22] was 127%, the viability, T/C [23] was 134% and the viability, T/C [24] was 98.2%. It also gave a viability, T/C [25] of 144%, a viability, T/C [26] of 114% and a viability, T/C [27] of 109%. It also gave a viability, T/C [28] of 121%, a viability, T/C [29] of 117% and a viability, T/C [30] of 98.9%. For the same compound, the viability, T/C [31] was 128%, the viability, T/C [32] was 119% and the viability, T/C [33] was 120%. The viability, T/C [34] was 128%, the viability, T/C [35] was 108% and the viability, T/C [36] was 95.2%.

For CC(C)n1c(=O)n(C)c2cnc3cc(F)c(-c4ccc(OCCCN5CCCCC5)nc4)cc3c21 + Nc1ccc(C#CCN(C(=O)Cc2ncc(C(F)(F)F)cc2C(F)(F)F)c2ccc(F)cc2)nn1, the IC50 (second compound 0.0316 µM) was greater than 10 µM, the IC50 (second compound 0.1 µM) was greater than 10 µM and the IC50 (second compound 0.316 µM) was greater than 10 µM. It also gave an IC50 (second compound 1 µM) greater than 10 µM, an IC50 (second compound 3.16 µM) greater than 10 µM and an IC50 (second compound 10 µM) greater than 10 µM. The viability, T/C [1] was 112%, the viability, T/C [2] was 105% and the viability, T/C [3] was 105%. For the same compound, the viability, T/C [4] was 111%, the viability, T/C [5] was 109% and the viability, T/C [6] was 72.9%. For the same compound, the viability, T/C [7] was 105%, the viability, T/C [8] was 102% and the viability, T/C [9] was 121%. It also gave a viability, T/C [10] of 105%, a viability, T/C [11] of 102% and a viability, T/C [12] of 78.7%. The viability, T/C [13] was 126%, the viability, T/C [14] was 123% and the viability, T/C [15] was 89.7%. The viability, T/C [16] was 108%, the viability, T/C [17] was 97.3% and the viability, T/C [18] was 84.5%. It also gave a viability, T/C [19] of 105%, a viability, T/C [20] of 102% and a viability, T/C [21] of 91.8%. For the same compound, the viability, T/C [22] was 105%, the viability, T/C [23] was 93.1% and the viability, T/C [24] was 79.7%. For the same compound, the viability, T/C [25] was 115%, the viability, T/C [26] was 109% and the viability, T/C [27] was 113%. For the same compound, the viability, T/C [28] was 116%, the viability, T/C [29] was 96.7% and the viability, T/C [30] was 78.3%. The viability, T/C [31] was 93.5%, the viability, T/C [32] was 81.5% and the viability, T/C [33] was 98.1%. For the same compound, the viability, T/C [34] was 86.6%, the viability, T/C [35] was 79.5% and the viability, T/C [36] was 71.5%.

C=CCn1c(=O)c2cnc(Nc3ccc(N4CCN(C)CC4)cc3)nc2n1-c1cccc(C(C)(C)O)n1 + Cc1cccc(N(C)C(=O)C2C(O)CCN2c2nc(C)cc(C(F)(F)F)c2C#N)c1 gave an IC50 (second compound 0.0316 µM) greater than 1 µM, an IC50 (second compound 0.1 µM) greater than 1 µM and an IC50 (second compound 0.316 µM) greater than 1 µM. For the same compound, the IC50 (second compound 1 µM) was greater than 1 µM, the IC50 (second compound 3.16 µM) was greater than 1 µM and the IC50 (second compound 10 µM) was greater than 1 µM. The viability, T/C (second compound 0.0316 µM, first compound 0.00316 µM) was 98.3%, the viability, T/C (second compound 0.0316 µM, first compound 0.01 µM) was 119% and the viability, T/C [1] was 96%. The viability, T/C [2] was 116%, the viability, T/C [3] was 103% and the viability, T/C [4] was 62.1%. The viability, T/C (second compound 0.1 µM, first compound 0.00316 µM) was 101%, the viability, T/C (second compound 0.1 µM, first compound 0.01 µM) was 103% and the viability, T/C [7] was 106%. For the same compound, the viability, T/C [8] was 103%, the viability, T/C [9] was 90.2% and the viability, T/C [10] was 67.4%. For the same compound, the viability, T/C (second compound 0.316 µM, first compound 0.00316 µM) was 111%, the viability, T/C (second compound 0.316 µM, first compound 0.01 µM) was 108% and the viability, T/C [13] was 99.7%. The viability, T/C [14] was 108%, the viability, T/C [15] was 108% and the viability, T/C [16] was 64.2%. The viability, T/C (second compound 1 µM, first compound 0.00316 µM) was 117%, the viability, T/C (second compound 1 µM, first compound 0.01 µM) was 98.6% and the viability, T/C [19] was 110%. It also gave a viability, T/C [20] of 99.8%, a viability, T/C [21] of 90.5% and a viability, T/C [22] of 57.8%. For the same compound, the viability, T/C (second compound 3.16 µM, first compound 0.00316 µM) was 104%, the viability, T/C (second compound 3.16 µM, first compound 0.01 µM) was 102% and the viability, T/C [25] was 113%. The viability, T/C [26] was 103%, the viability, T/C [27] was 97.2% and the viability, T/C [28] was 67%. The viability, T/C (second compound 10 µM, first compound 0.00316 µM) was 105%, the viability, T/C (second compound 10 µM, first compound 0.01 µM) was 109% and the viability, T/C [31] was 89.4%. For the same compound, the viability, T/C [32] was 96.5%, the viability, T/C [33] was 88.2% and the viability, T/C [34] was 59.3%.

— PubChem BioAssay AID1963849 (Molecular Pharmacology Branch, DTP, NCI, 2024)
